C=C1CCN([C@H](C)[C@](O)(Cn2cncn2)c2ccc(F)cc2F)CC1
solubility (mole fraction) (in DMF, 288.15 K): 0.281 | solubility (mole fraction) (in DMF, 293.15 K): 0.298 | solubility (mole fraction) (in DMF, 298.15 K): 0.316 | solubility (mole fraction) (in DMF, 303.15 K): 0.334 | solubility (mole fraction) (in DMF, 308.15 K): 0.353 | solubility (mole fraction) (in PEG-400, 288.15 K): 0.171 | solubility (mole fraction) (in PEG-400, 293.15 K): 0.182 | solubility (mole fraction) (in PEG-400, 298.15 K): 0.194 | solubility (mole fraction) (in PEG-400, 303.15 K): 0.206 | solubility (mole fraction) (in PEG-400, 308.15 K): 0.219 | solubility (mole fraction) (in THF, 288.15 K): 0.321 | solubility (mole fraction) (in THF, 293.15 K): 0.335 | solubility (mole fraction) (in THF, 298.15 K): 0.351 | solubility (mole fraction) (in THF, 303.15 K): 0.367 | solubility (mole fraction) (in THF, 308.15 K): 0.382 | solubility (mole fraction) (in acetone, 288.15 K): 0.243 | solubility (mole fraction) (in acetone, 293.15 K): 0.261 | solubility (mole fraction) (in acetone, 298.15 K): 0.28 | solubility (mole fraction) (in acetone, 303.15 K): 0.301 | solubility (mole fraction) (in acetone, 308.15 K): 0.321 | solubility (mole fraction) (in acetonitrile, 288.15 K): 0.0874 | solubility (mole fraction) (in acetonitrile, 293.15 K): 0.109 | solubility (mole fraction) (in acetonitrile, 298.15 K): 0.136 | solubility (mole fraction) (in acetonitrile, 303.15 K): 0.168 | solubility (mole fraction) (in acetonitrile, 308.15 K): 0.204 | solubility (mole fraction) (in dichloromethane, 288.15 K): 0.321 | solubility (mole fraction) (in dichloromethane, 293.15 K): 0.34 | solubility (mole fraction) (in dichloromethane, 298.15 K): 0.358 | solubility (mole fraction) (in dichloromethane, 303.15 K): 0.379 | solubility (mole fraction) (in dichloromethane, 308.15 K): 0.4 | solubility (mole fraction) (in ethanol, 288.15 K): 0.122 | solubility (mole fraction) (in ethanol, 293.15 K): 0.144 | solubility (mole fraction) (in ethanol, 298.15 K): 0.172 | solubility (mole fraction) (in ethanol, 303.15 K): 0.203 | solubility (mole fraction) (in ethanol, 308.15 K): 0.242 | solubility (mole fraction) (in ethyl acetate, 288.15 K): 0.231 | solubility (mole fraction) (in ethyl acetate, 293.15 K): 0.251 | solubility (mole fraction) (in ethyl acetate, 298.15 K): 0.272 | solubility (mole fraction) (in ethyl acetate, 303.15 K): 0.297 | solubility (mole fraction) (in ethyl acetate, 308.15 K): 0.321 | solubility (mole fraction) (in isopropanol, 288.15 K): 0.0849 | solubility (mole fraction) (in isopropanol, 293.15 K): 0.105 | solubility (mole fraction) (in isopropanol, 298.15 K): 0.125 | solubility (mole fraction) (in isopropanol, 303.15 K): 0.152 | solubility (mole fraction) (in isopropanol, 308.15 K): 0.184 | solubility (mole fraction) (in methanol, 288.15 K): 0.176 | solubility (mole fraction) (in methanol, 293.15 K): 0.195 | solubility (mole fraction) (in methanol, 298.15 K): 0.214 | solubility (mole fraction) (in methanol, 303.15 K): 0.236 | solubility (mole fraction) (in methanol, 308.15 K): 0.259 | solubility (mole fraction) (in n-butanol, 288.15 K): 0.113 | solubility (mole fraction) (in n-butanol, 293.15 K): 0.135 | solubility (mole fraction) (in n-butanol, 298.15 K): 0.159 | solubility (mole fraction) (in n-butanol, 303.15 K): 0.185 | solubility (mole fraction) (in n-butanol, 308.15 K): 0.218 | solubility (mole fraction) (in n-propanol, 288.15 K): 0.12 | solubility (mole fraction) (in n-propanol, 293.15 K): 0.142 | solubility (mole fraction) (in n-propanol, 298.15 K): 0.164 | solubility (mole fraction) (in n-propanol, 303.15 K): 0.191 | solubility (mole fraction) (in n-propanol, 308.15 K): 0.222 | solubility (mole fraction) (in propylene glycol, 288.15 K): 0.0278 | solubility (mole fraction) (in propylene glycol, 293.15 K): 0.031 | solubility (mole fraction) (in propylene glycol, 298.15 K): 0.0343 | solubility (mole fraction) (in propylene glycol, 303.15 K): 0.0384 | solubility (mole fraction) (in propylene glycol, 308.15 K): 0.0424 | solubility (mole fraction) (in transcutol, 288.15 K): 0.218 | solubility (mole fraction) (in transcutol, 293.15 K): 0.233 | solubility (mole fraction) (in transcutol, 298.15 K): 0.247 | solubility (mole fraction) (in transcutol, 303.15 K): 0.262 | solubility (mole fraction) (in transcutol, 308.15 K): 0.276 | solubility (mole fraction) (in water, 288.15 K): 1.08e-06 | solubility (mole fraction) (in water, 293.15 K): 1.4e-06 | solubility (mole fraction) (in water, 298.15 K): 1.77e-06 | solubility (mole fraction) (in water, 303.15 K): 2.29e-06 | solubility (mole fraction) (in water, 308.15 K): 2.91e-06

Source: BigSolDB 2.1
